Values joined by “and” are separate entries in the source; they are usually repeats but may differ in a detail not shown here. Equal entries are not always repeated. “Also recorded” adds a separate entry of the source. Where two headings read alike, the source gives them in different places. Blank lines part the entries; values can stand above or below the compound they belong to.
Columns and labels:
[1] = system: p53; assay: p53 induction by immunoblotting (IB), H460 and/or HCT116^+/+ cells (line not singled out); format: cell-based, human; conditions: 18 hrs; for p53 induction / activation: synthetic analogs, IB, 0.5, 2, 10 μM, compared to INZ; for p53 induction at 0.5 μM: IB
Source text: Initial Inauhzin analogs were purchased and tested the activity on H460 and HCT116^p53+/+ by IB.
This study also investigated the activity of the compounds in cell-based assays for their ability to induce p53 levels in p53 containing human colon cancer HCT116^+/+ cells and/or human lung cancer H460 cells using immunoblotting (IB) (FIG. 1 and FIG. 8). […] Both triazino[5,6-b]indol (G1) and phenothiazine (G2) are essential functional groups for p53 induction. […] Therefore, further attention was focused on the structural modifications of the pharmacologically active core: triazino[5,6-b]indol or phenothiazine. Modifications included extension of carbon chain length on R1 (14) (FIG. 2B), the substitution on the phenothiazine ring (G2) (6-13) (FIG. 2A) or on the triazino[5,6-b]indol ring (G1) (15-36) (FIGS. 2B-2D).
(§1) Cell Culture and Immunoblotting Analysis.

[2] = system: H460 and HCT116^+/+ cells; assay: Cell growth inhibition (WST), statements covering both p53-containing lines; format: cell-based, human; conditions: for EC90 fold lower than INZ: H460 and HCT116^+/+; for EC90: Homo sapiens, H460 and HCT116^+/+ together, read-out: EC90 values, range over H460 and HCT116^+/+
Source text: as §1

[3] = system: H1299 cells and HCT116^−/− cells; assay: Cell growth inhibition (WST), statements covering p53-null lines; conditions: for inhibitory activity in p53-null cells: in contrast to p53-containing cells
Experimental: (§2) The EC50 values for their ability to inhibit cell growth were calculated through serial dilution of their concentrations with the highest concentration at 50 μM.
(§3) Human lung carcinoma H460, non-small-cell lung cancer H1299, human colon cancer HCT116 (HCT116^+/+), and human embryonic fibroblast WI-38 were bought from the American Type Culture Collection (ATCC). […] Those cell lines were cultured in Dulbecco's modified Eagle's medium supplemented with 10% fetal bovine serum, 100 U per mL penicillin, and 100 U per mL streptomycin. Compounds were dissolved in DMSO and diluted directly into the medium to the indicated concentrations; 0.1% DMSO was used as a control.
(§4) Cell Viability Assay. To assess cell growth, the cell counting kit (Dojindo Molecular Technologies Inc., Gaithersburg, Md.) was used according to manufacturer's instructions. Cell suspensions were seeded at 3,000 cells per well in 96-well culture plates and incubated overnight at 37° C. Compounds were added into the plates and incubated at 37° C. for 72 hrs. Cell growth inhibition was determined by adding WST-8 at a final concentration of 10% to each well, and the absorbance of the samples was measured at 450 nm using a Microplate Reader (Molecular Device, SpecrtraMax M5^e). EC50 values were determined by the Hill equation using Igor 4.01 (Lake Oswego, Oreg., USA).

[4] = system: H460; assay: Cell viability assay (3-day WST-8), H460; format: cell-based, human; conditions: for fold higher potency than INZ in growth inhibition: H460, versus INZ; for EC90 / EC50: H460, p53 wild type; for EC90: calculated from EC50 and Hill slope, read-out: EC90 cell growth inhibition; for EC50: 72 hrs, average of triplicates, read-out: EC50 cell growth inhibition
Experimental: (§5) Those cell lines were cultured in Dulbecco's modified Eagle's medium supplemented with 10% fetal bovine serum, 100 U per mL penicillin, and 100 U per mL streptomycin. Compounds were dissolved in DMSO and diluted directly into the medium to the indicated concentrations; 0.1% DMSO was used as a control.
(§6) Cell Viability Assay. To assess cell growth, the cell counting kit (Dojindo Molecular Technologies Inc., Gaithersburg, Md.) was used according to manufacturer's instructions. Cell suspensions were seeded at 3,000 cells per well in 96-well culture plates and incubated overnight at 37° C. Compounds were added into the plates and incubated at 37° C. for 72 hrs. Cell growth inhibition was determined by adding WST-8 at a final concentration of 10% to each well, and the absorbance of the samples was measured at 450 nm using a Microplate Reader (Molecular Device, SpecrtraMax M5^e).

[5] = system: HCT116^+/+; assay: Cell viability assay (3-day WST-8), HCT116^+/+; format: cell-based, human; conditions: for fold higher potency than INZ in growth inhibition: versus INZ
Experimental: as §5, §6

[6] = system: H460 orthotopic lung tumors; assay: H460 orthotopic lung tumor model, bioluminescent imaging; format: in vivo, SCID mice; conditions: i.p. 50 mg/kg once a day for 3 weeks, H460-Luc cells in pleural space
Experimental: FIGS. 13A and 13B show the effects of compound 37 on the growth of H460 orthotopic lung tumors. Each mouse was dosed once a day via i.p. with either vehicle or compound 37 (50 mg/kg) for 3 weeks starting 4 days after implantation of 5×10^5 H460-Luc tumor cells into the pleural space of the SCID mice. […] Each value is a mean of five animals ±SD. FIG. 13B is bioluminescent imaging (BLI) of orthotopic lung tumors in SCID mice.
The effects of compound 8 on the growth of H460 orthotopic lung tumors. Each mouse was dosed once a day via i.p. with either vehicle or 14 (50 mg/kg) for 3 weeks starting 4 days after implantation of 5×10^5 H460-Luc tumor cells into the pleural space of the SCID mice. […] Each value is a mean of five animals ±SD.

[7] = system: H1299; assay: Cell viability assay (3-day WST-8), H1299 (p53 null); conditions: for EC50: read-out: EC50 cell growth inhibition
Experimental: as §5, §6

[8] = system: HCT116^−/−; assay: Cell viability assay (3-day WST-8), HCT116^−/− (p53 null); conditions: for EC50: read-out: EC50 cell growth inhibition
Experimental: as §2, §3, §4

[9] = system: xenograft tumors derived from p53-harboring lung cancer H460 and colon cancer HCT116^+/+ cells; conditions: background, earlier work; cited from earlier work
[10] = Homo sapiens, HCT-116, HCT116+/+ cells, values of b177 (differ from Table 1), read-out: EC50 growth inhibition
[11] = Homo sapiens, HCT-116, HCT116^+/+, p53 wild type, calculated from EC50 and Hill slope, read-out: EC90 cell growth inhibition

SMILES: C#CCCn1c2ccccc2c2nnc(SC(CC)C(=O)N3c4ccccc4Sc4ccccc43)nc21 (stereo not drawn) [Compound 32, 2-((5(but-3-yn-1-yl)-5H-[1,2,4]triazino[5,6-b]indol-3-yl)thiol)-1-(10H-phenothiazin-10-yl)butan-1-one]
- p53 induction / activation [1]: significant decrease in activity

SMILES: CCC(Sc1nnc2c3ccccc3n(CC(=O)c3ccccc3)c2n1)C(=O)N1c2ccccc2Sc2ccccc21 (stereo not drawn) [Compound 33, 2-((5-(2-oxo-2-phenylethyl)-5H-[1,2,4]triazino[5,6-b]indol-3-yl)thiol)-1-(10H-phenothiazin-10-yl)butan-1-one]
- p53 induction / activation [1]: significant decrease in activity

- EC90 fold lower than INZ ([2]; versus INZ): 1.5 fold
- EC90 [2]: 20 to 30 µM
SMILES: CCC(Sc1nnc2c(n1)[nH]c1cc(C)ccc12)C(=O)N1c2ccccc2Sc2ccccc21 (stereo not drawn) [Compound 19, 2-((7-methyl-5H-[1,2,4]triazino[5,6-b]indol-3-yl)thio)-1-(10H-phenothiazin-10-yl)butan-1-one]
- p53 induction at 0.5 μM [1]: significant effect on p53 induction compared to INZ
- inhibitory activity in p53-null cells [3]: much less effective

SMILES: CCOC(=O)Cn1c2ccccc2c2nnc(SC(CC)C(=O)N3c4ccccc4Sc4ccccc43)nc21 (stereo not drawn) [Compound 28, Ethyl 2-(3-((1-oxo-1-(10H-phenothiazin-10-yl)butan-2-yl)thio)-5H-[1,2,4]triazino[5,6-b]indol-5-yl)acetate]
- p53 induction / activation [1]: essentially inactive

SMILES: CCC(Sc1nnc2c3ccccc3n(C(=O)c3ccccc3)c2n1)C(=O)N1c2ccccc2Sc2ccccc21 (stereo not drawn) [Compound 21, 2-((5-benzoyl-5H-[1,2,4]triazino[5,6-b]indol-3-yl)thio)-1-(10H-phenothiazin-10-yl)butan-1-one]
- inhibitory activity in p53-null cells [3]: much less effective

SMILES: CCCCC(Sc1nnc2c(n1)[nH]c1ccccc12)C(=O)N1c2ccccc2Sc2ccccc21 (stereo not drawn) [Compound 14, 2-((5H-[1,2,4]triazino[5,6-b]indol-3-yl)thio)-1-(10H-phenothiazin-10-yl)hexan-1-one]
- p53 induction / activation [1]: lower activity for p53 induction

SMILES: CCC(Sc1nnc2c(n1)[nH]c1cc(OC)ccc12)C(=O)N1c2ccccc2Sc2ccccc21 (stereo not drawn) [Compound 18, 2-((7-methoxy-5H-[1,2,4]triazino[5,6-b]indol-3-yl)thio)-1-(10H-phenothiazin-10-yl)butan-1-one]
- p53 induction / activation [1]: marked decrease in p53 activation

- EC90 ([4]; Homo sapiens, NCI-H460): 3.5 µM
- EC90 fold lower than INZ ([5]; HCT116+/+ cells, b177): 5 fold
- EC90 ([5]; Homo sapiens, HCT-116, HCT116+/+ cells, b177, read-out: EC90): ~10 µM
- EC50 [5, 10]: 1.41 µM
- EC90 [5, 11]: 10 µM
- EC90 fold lower than INZ ([2]; versus INZ): 3-10 fold
- EC90 [2]: 3.5 to 10 µM
SMILES: CCC(Sc1nnc2c(n1)[nH]c1ccccc12)C(=O)N1c2ccccc2Cc2ccccc21 (stereo not drawn) [Compound 8, 2-((5H-[1,2,4]triazino[5,6-b]indol-3-yl)thio)-1-(acridin-10(9H)-yl)butan-1-one]
- fold higher potency than INZ in growth inhibition [4]: more than 2 fold
- fold higher potency than INZ in growth inhibition ([5]; HCT116^+/+): more than 2 fold
- fold higher potency than INZ in growth inhibition ([5]; HCT116^+/+, listed as INZ-14): over 2 fold
- p53 induction at 0.5 μM [1]: drastically induced p53
- p53 induction / activation [1]: more potent in p53 activation than their parental compound INZ
- bioactivity against orthotopic lung cancers (tumor burden by BLI, words) [6]: exhibited highly promising bioactivity against orthotopic lung cancers
- inhibitory activity in p53-null cells [3]: much less effective

- EC50 [4]: 3.5 ± 0.4 µM
- EC90 [4]: ~7.7 µM and 7.7 µM
- EC50 ([5]; HCT116^+/+, p53 wild type, 72 hrs, read-out: EC50 cell growth inhibition): 0.8 ± 0.5 µM
- EC90 ([5]; HCT116^+/+, p53 wild type, calculated from EC50 and Hill slope, read-out: EC90 cell growth inhibition): 4.6 µM
- EC90 fold lower than INZ ([2]; versus INZ): 5 fold
- EC50 ([7]; H1299, p53 null, 72 hrs): 16.6 µM
- EC50 ([8]; HCT116^−/−, p53 null, 72 hrs): 7.8 ± 3.4 µM
SMILES: CCC(Sc1nnc2c3ccccc3n(CCO)c2n1)C(=O)N1c2ccccc2Sc2ccccc21 (stereo not drawn) [Compound 30, 2-((5(2-hydroxyethyl)-5H-[1,2,4]triazino[5,6-b]indol-5-yl)thiol)-1-(10H-phenothiazin-10-yl)butan-1-one]
- cell growth inhibition ([2]; compared with INZ or compound 8): comparable to compound 8
- p53 induction / activation [1]: comparable to compound 8; also recorded: more potent in p53 activation than their parental compound INZ
- inhibitory activity in p53-null cells [3]: much less effective

SMILES: CCC(Sc1nnc2c(n1)[nH]c1ccccc12)C(=O)N1c2ccccc2Sc2ccc(OC)cc21 (stereo not drawn) [Compound 7, 2-((5H-[1,2,4]triazino[5,6-b]indol-3-yl)thio)-1-(2-methoxy-10H-phenothiazin-10-yl)butan-1-one]
- p53 induction / activation [1]: remained active in p53 induction

SMILES: CCC(Sc1nnc2c(n1)[nH]c1ccccc12)C(=O)N1c2ccccc2Sc2ccc(Cl)cc21 (stereo not drawn) [Compound 6, 2-((5H-[1,2,4]triazino[5,6-b]indol-3-yl)thio)-1-(2-chloro-10H-phenothiazin-10-yl)butan-1-one]
- p53 induction / activation [1]: remained active in p53 induction

SMILES: CCC(Sc1nnc2c(n1)[nH]c1ccccc12)C(=O)N1c2ccccc2Sc2ccccc21 (stereo not drawn) [INZ, 2-((5H-[1,2,4]triazino[5,6-b]indole-3yl)thio)-1-(10H-phenothiazin-10-yl)butan-1-one, reference compound]
- EC50 ([4]; Homo sapiens, NCI-H460): 7.7 ± 1.1 µM
- EC90 ([4]; Homo sapiens, NCI-H460): ~39.9 µM
- EC50 [5, 10]: 3.52 µM
- EC50 ([5]; Homo sapiens, HCT-116, HCT116^+/+, p53 wild type, 72 hrs, read-out: EC50 cell growth inhibition): 2.7 ± 0.3 µM
- EC90 [5, 11]: 30.5 µM
- growth of xenograft tumors [9]: repressed the growth of xenograft tumors
- EC50 ([7]; Homo sapiens, NCI-H1299, 72 h): 11.6 ± 3.4 µM
- EC90 ([7]; Homo sapiens, NCI-H1299, read-out: EC90 cell growth inhibition): 217 µM
- EC50 ([8]; Homo sapiens, HCT-116, 72 h): 13.3 ± 2.4 µM
- EC90 ([8]; Homo sapiens, HCT-116, read-out: EC90 cell growth inhibition): 213 µM
- EC50 fold greater in p53-null cells than in p53-containing cell lines ([3]; p53-null versus p53-containing): 1.5 fold
- EC90 fold greater in p53-null cells than in p53-containing cell lines ([3]; p53-null versus p53-containing): 5-7 fold

SMILES: CCC(Sc1nnc2c3ccccc3n(C(=O)CCCCC3CC4NC(=O)NC4S3)c2n1)C(=O)N1c2ccccc2Sc2ccccc21 (stereo not drawn) [Compound 20, 5-(5-oxo-5-(3-((1-oxo-1-(10H-phenothiazin-10-yl)butan-2-yl)thio)-5H-[1,2,4]triazino[5,6-b]indol-5-yl)pentyl)tetrahydro-1H-thieno[2,3-d]imidazole-2(5H)-one]
- p53 induction / activation [1]: as effective as INZ

SMILES: CCC(Sc1nnc2c3ccccc3n(CCO)c2n1)C(=O)N1c2ccccc2Cc2ccccc21 (stereo not drawn) [Compound 37, 1-(acridin-10(9H)-yl)-2-((5-(2-hydroxyethyl)-5H-[1,2,4]triazino[5,6-b]indol-3-yl)thio)butan-1-one]
- fold higher potency than INZ in growth inhibition [4]: 10 fold
- fold higher potency than INZ in growth inhibition ([5]; HCT116^+/+): 5 fold
- potency improvement compared to INZ in cancer growth inhibition ([2]; versus INZ): 5- to 10 fold
- p53 induction / activation [1]: more potent in p53 activation than their parental compound INZ
- EC90 ([7]; Homo sapiens, NCI-H1299, read-out: EC90 cell growth inhibition, H1299, p53 null, calculated from EC50 and Hill slope): > 50 µM
- EC90 ([8]; Homo sapiens, HCT-116, read-out: EC90 cell growth inhibition, HCT116^−/−, p53 null, calculated from EC50 and Hill slope): > 50 µM
- inhibitory activity in p53-null cells [3]: much less effective

SMILES: CCC(Sc1nnc2c3ccccc3n(CC(=O)O)c2n1)C(=O)N1c2ccccc2Sc2ccccc21 (stereo not drawn) [Compound 29, 2-(3-((1-oxo-1-(10H-phenothiazin-10-yl)butan-2-yl)thio)-5H-[1,2,4]triazino[5,6-b]indol-5-yl)acetic acid]
- p53 induction / activation [1]: essentially inactive
